What all share (format): in vivo, mouse
One experiment has as its system DR5-/- mice. Kind of experiment: Radiation pneumonitis after whole-thorax x-ray irradiation, H&E of lung, DR5-null mice. Conditions: 20 Gy. As for the experimental part:
However, before embarking on the planned experiment, we decided to perform a preliminary, short-term treatment feasibility experiment to ensure some mouse survival after 20 Gy of thoracic irradiation (FIG. 1B). The preliminary experiment was performed with WT and DR5-null mice that were irradiated with 20 Gy, and this was followed by either weekly doses of TIC10/ONC201 (100 mg/kg for total of two doses) or twice a week doses of TLY012 (10 mg/kg for total of four doses) for 2 weeks.
Animal studies were carried out at Brown University facilities with approval from Brown University IACUC. C57B1/6 mice (Taconic), mice with bi-allelic loss of TRAIL Death Receptor-(DR5-/-) in a C57B1/6 background, and mice with bi-allelic loss of TRAIL (TRAIL -/-) in a C57B1/6 background were given a single whole-thorax x-ray (Philips RT250) irradiation dose of 20 Gy with shielding of other organs. 8-15-week-old male and female mice of each genotype were used. […] Treatment was continued for two weeks, where TLY012 was administered twice a week and ONC201 was administered once a week. For each genetic background, two mice received a control PO, two mice received TLY012 IP, and two mice received ONC201 PO. Mice were weighed twice a week, and 13 days post-irradiation all mice were euthanized. Organs were harvested from the mice and 600 μL of blood was collected via cardiac puncture for serum cytokine analysis. […]

The subject of a further experiment is female C57B1/6 mice. The experiment in a line: 48-hour post-radiation TLY012 treatment. Conditions: 20 Gy, 10 mg/kg twice a week, preliminary results. The source says:
Mice were weighed twice a week, and then euthanized on day 13 post-irradiation. […] H&E-stained slides of the lungs were imaged at 20× magnification.

Experiment [1] concerns lung tissue in irradiated C57B1/6 mice. Kind of experiment: Immunohistochemistry of irradiated lung tissue. The source says: Paraffin embedded sections of tissue were deparaffinized in xylene and rehydrated through graded ethanol solutions to phosphate-buffered saline (PBS). Heat-induced antigen retrieval (in 0.01 M citrate buffer; pH 6.0), endogenous peroxidase blocking (3% H202), and blocking were done using a standard protocol. […] Slides were developed with diaminobenzidine substrate (Vector Laboratories SK-4100) and counterstained with hematoxylin (Richard Allen Scientific). Slides were scanned (Olympus VS200) and representative brightfield images were taken and analyzed with OlyVIA software.

The test system of experiment [2] is TRAIL-/- mice. Kind of experiment: Radiation pneumonitis after whole-thorax x-ray irradiation, H&E of lung, TRAIL-null mice. Particulars: TRAIL-/- male or female mice, 20 Gy thoracic irradiation, two weeks treatment, FIG. 2A, B. Here is the method: Animal studies were carried out at Brown University facilities with approval from Brown University IACUC. C57B1/6 mice (Taconic), mice with bi-allelic loss of TRAIL Death Receptor-(DR5-/-) in a C57B1/6 background, and mice with bi-allelic loss of TRAIL (TRAIL -/-) in a C57B1/6 background were given a single whole-thorax x-ray (Philips RT250) irradiation dose of 20 Gy with shielding of other organs. 8-15-week-old male and female mice of each genotype were used. […] Treatment was continued for two weeks, where TLY012 was administered twice a week and ONC201 was administered once a week. For each genetic background, two mice received a control PO, two mice received TLY012 IP, and two mice received ONC201 PO. Mice were weighed twice a week, and 13 days post-irradiation all mice were euthanized. Organs were harvested from the mice and 600 μL of blood was collected via cardiac puncture for serum cytokine analysis. Organs were preserved in 10% formalin then embedded in paraffin and sectioned at a distance of 5 μm. […] TRAIL-/- female mice were also subjected to a survival study with a single whole-thorax radiation doses of 15 Gy or 18 Gy treated with the same regimen of TLY012 or control (n=2/radiation dose/treatment) (FIG. 3B). […]

The subject of experiment [3] is TRAIL-/- mice. Kind of experiment: Survival after whole-thorax irradiation, TRAIL-/- mice. As for the experimental part:
Starting one hour before irradiation, mice were treated with either 10 mg/kg of TLY012 (D&D Pharmatech) by intraperitoneal (IP) injection or 100 mg/kg of ONC201/TIC10 (Chimerix/Oncoceutics) by oral gavage (PO) or a control gavage consisting of 20% Cremophor® EL (Sigma #238470) and 70% Dulbecco's phosphate buffered saline solution (Cytiva SH30264.02) per volume via PO (n=2/gender/treatment).

The mark [4] stands for this setting: irradiated rescued versus irradiated control lung tissues.
The mark [5] stands for this setting: normal or inflamed lung, treated versus irradiated control.

Entries after “also recorded” stand apart in the source; their conditions may differ.

For “TLY012: N-terminal PEGylated recombinant human TRAIL; PEGylated trimeric TRAIL formulation”, the “rescue from radiation pneumonitis” value in the experiment with DR5-/- mice (DR5-/- mice, FIG. 2A, B) is reported as “did not observe rescue”. The protection from pneumonitis entry in the experiment with DR5-/- mice (DR5-null mice, preliminary experiment, 2 weeks treatment, FIG. 1C) is listed as “lack of protection”. In the experiment on female C57B1/6 mice, the “rescue when treatment starts 48 hours after irradiation” value is “some rescue is possible”. For the same substance, in experiment [1] (setting [4]), the NFkB result is on record as “no differences” and the proliferation entry is recorded as “no differences”. Besides, in experiment [1] (setting [5]), the “DNA double strand break marker gamma-H2AX” value was “no difference” and the “T-cell infiltration (CD3-epsilon)” value is “no difference”. For the same substance, the collagen in lungs result in experiment [1] (rescued lungs versus irradiated control) is reported as “less collagen”. In the experiment on TRAIL-/- mice [2], the “rescue from radiation pneumonitis” value is given as “rescued”. Besides, the protection from lethality entry with TRAIL-/- mice [3] (female TRAIL-/- mice, 15 Gy, FIG. 3B) is reported as “protection from lethality”. The substance further came in with a survival in the experiment on TRAIL-/- mice [3] (female TRAIL-/- mice, 18 Gy whole-thorax irradiation, FIG. 3B) of 3 weeks. Moreover, the “survival / rescue from lethality” value in the experiment with TRAIL-/- mice [3] (male TRAIL-/- mice, 18 Gy chest irradiation, 10 mg/kg, FIG. 3A) was “increased survival; also recorded: rescue from lethality”.

For the origin of these results see patent publication US20230414715A1, “TRAIL COMPOUNDS FOR REDUCING CANCER TREAMENT SIDE EFFECTS” (BROWN UNIVERSITY, priority 2022, published 2023).
